{
  "source": "patent US3976673A",
  "about": "“4-Cyclopropylmethyleneoxy-3-chlorophenylacetic acid and salts thereof” (priority 1974, dated 1976)",
  "key": {"[1]": {"system": "edema induced by carrageenin", "experiment": "Anti-inflammatory activity, Winter's method (carrageenin edema)", "type": "in vivo, male rats", "settings": "3 hours after carrageenin", "experimental": "This was determined according to Winter's method which evaluates the inhibiting effect on the edema induced by carrageenin.\nMale rats weighing 170-190 g were treated with the compounds under test and after 60 minutes 0.005 ml of a 1% aqueous solution of carrageenin were injected into the plantar zone of a hind paw of each animal. The volume of the treated paw was determined immediately after the injection and 3 hours later.\n10 Animals were used for each dosage level. The increase difference in the volume of the paw of animals treated compared with the controls represents the index of the anti-inflammatory activity. The results obtained, expressed as percentage inhibition of the volume of the edema compared to the controls and evaluated as average value for each dose are listed in Table 3."}, "[2]": {"system": "hyperpyressia induced by bactopeptone", "experiment": "Anti-piretic activity, hyperpyressia induced by bactopeptone", "type": "in vivo, Wistar male rats", "experimental": "(§1) This was evaluated considering 2 kinds of hyperpyressia. Hyperpyressia induced by:\n1 Milliliter of 5% aqueous solution of bactopeptone preincubated for 18 hours at 37°C were injected subcutaneously in Wistar male rats weighing 170-190 g. 4 Hours after treatment with the pyrogen, the animals were divided into groups of ten animals each and treated orally with the substances under examination. The rectal temperature was taken at the beginning of the test, 4 hours after the injection of the pyrogen agent and subsequently 1, 2 and 3 hours after the administration of the substances under test. The difference between the temperature taken in the treated animals and in controls is an index of the anti-pyretic activity."}, "[3]": {"experiment": "Chemical stability (general statement)", "type": "physicochemical", "settings": "statement in words"}, "[4]": {"system": "abdominal stretching induced by phenylbenzoquinone", "experiment": "Analgesic activity, Siegmund (phenylbenzoquinone abdominal stretching)", "type": "in vivo, Swiss male mice", "settings": "salts' dosage expressed as acid, vs water controls", "experimental": "It was evaluated according to the following methods:\nThe antagonism towards the abdominal stretching induced by phenylbenzoquinone was evaluated. Swiss male mice weighing 19-21 g were treated orally with the compounds under examination 30 minutes before the endoperitoneal administration of 0.25 ml of a […] aqueous phenylbenzoquinone solution. The animals were kept under observation for 30 minutes after treatment with phenylbenzoquinone and the abdominal stretchings for each animal were counted. 10 Mice for each dosage level were used and the corresponding average values considered. The percentage decrease of the number of abdominal stretchings in the animals treated with the substances under test compared with the controls treated with water was taken as the index of the analgesic activity."}, "[5]": {"system": "hyperpyressia induced by yeast", "experiment": "Anti-piretic activity, hyperpyressia induced by yeast", "type": "in vivo, albino rabbits", "experimental": "as §1\nTo albino rabbits, 1 ml/kg of a 0.2% aqueous suspension of yeast were injected intravenously. The rectal temperature was teken at the beginning of the experiment and 60 minutes after the treatment with the pyrogen agent. Immediately after taking the temperature the compounds under test were administered orally to the animals and the rectal temperatures thereof were subsequently measured after 30, 60, 120 and 180 minutes. 10 Animals were treated for each dose level. The difference between the temperatures taken in the animals treated and in the controls is and index of the antipyretic activity. The results obtained by performing the two methods cited above for the determination of the antipyretic activity are listed in Tables 4 and 5 respectively and evaluated as average value for each dose."}, "[6]": {"system": "pain threshold of rat's paw made edematous by yeast", "experiment": "Analgesic activity, Randall and Selitto (pain threshold of edematous rat paw)", "type": "in vivo, male Wistar rats", "settings": "vs basal values", "experimental": "It was evaluated according to the following methods: a. Randall and Selitto The pressure to be exerted on a rat's paw previously made edematous by injecting into the plantar zone 0.1 ml of 20% suspension of yeast until appearance of painful reaction was measured in mmHg. The pain threshold was determined 30 minutes before and 30, 60, 90 and 120 minutes after the administration of the substances under test. 10 Male Wistar rats weighing 170-190 g were used for each dosage level and the corresponding average values considered for each dose. The percentage increase of the pain threshold compared to the basal values is taken as the index of the analgesic activity."}, "[7]": {"experiment": "Toxicity / therapeutical index (general statement)", "settings": "statement in words"}, "[8]": {"settings": "25 mg/kg i.p., salts' dosage expressed as acid"}, "[9]": {"settings": "50 mg/kg i.p., salts' dosage expressed as acid"}, "[10]": {"settings": "50 mg/kg os, salts' dosage expressed as acid"}, "[11]": {"settings": "15 mg/kg os, salts' dosage expressed as acid"}, "[12]": {"settings": "25 mg/kg os, salts' dosage expressed as acid"}},
  "note": "Entries after “also recorded” stand apart in the source; their conditions may differ.",
  "data": [
    {"compound": "O=C(O)Cc1ccc(OCC2CC2)c(Cl)c1", "note": "[4-cyclopropylmethyleneoxy-3-chlorophenylacetic acid]", "values": [
      {"measurement": "% Inhibition of oedema", "setting": "[1]; 2.5 mg/kg i.p.", "result": 15, "unit": "%"},
      {"measurement": "% Inhibition of oedema", "setting": "[1]; 5 mg/kg i.p., salts' dosage expressed as acid", "result": 37, "unit": "%"},
      {"measurement": "% Inhibition of oedema", "setting": "[1]; 10 mg/kg os, salts' dosage expressed as acid", "result": 31, "unit": "%"},
      {"measurement": "% Inhibition of oedema", "setting": "[1]; [8]", "result": 55, "unit": "%"},
      {"measurement": "% Inhibition of oedema", "setting": "[1]; [9]", "result": 61, "unit": "%"},
      {"measurement": "% Inhibition of oedema", "setting": "[1]; [10]", "result": 65, "unit": "%"},
      {"measurement": "Rectal temperature, 1 hour after treatment", "setting": "[2]; 6 mg/kg os", "result": 38.7, "unit": "°C"},
      {"measurement": "Rectal temperature, 2 hours after treatment", "setting": "[2]; 6 mg/kg os", "result": 39.3, "unit": "°C"},
      {"measurement": "Rectal temperature, 3 hours after treatment", "setting": "[2]; 6 mg/kg os", "result": 39.1, "unit": "°C"},
      {"measurement": "Rectal temperature, 1 hour after treatment", "setting": "[2]; [11]", "result": 37.7, "unit": "°C"},
      {"measurement": "Rectal temperature, 2 hours after treatment", "setting": "[2]; [11]", "result": 38.0, "unit": "°C"},
      {"measurement": "Rectal temperature, 3 hours after treatment", "setting": "[2]; [11]", "result": 37.6, "unit": "°C"},
      {"measurement": "Rectal temperature, 1 hour after treatment", "setting": "[2]; [12]", "result": 37.3, "unit": "°C"},
      {"measurement": "Rectal temperature, 2 hours after treatment", "setting": "[2]; [12]", "result": 37.3, "unit": "°C"},
      {"measurement": "Rectal temperature, 3 hours after treatment", "setting": "[2]; [12]", "result": 37.1, "unit": "°C"},
      {"measurement": "stability of chemical structure", "setting": "[3]", "result": "noticeable stability; also recorded: chemically stable"},
      {"measurement": "% Decrease in number of stretchings", "setting": "[4]; 25 mg/kg os", "result": 51, "unit": "%"},
      {"measurement": "% Decrease in number of stretchings", "setting": "[4]; 50 mg/kg os", "result": 77, "unit": "%"},
      {"measurement": "% Decrease in number of stretchings", "setting": "[4]; 100 mg/kg os", "result": 98, "unit": "%"},
      {"measurement": "Rectal temperature, 30 mins. after treatment", "setting": "[5]; 5 mg/kg per os", "result": 40.17, "unit": "°C"},
      {"measurement": "Rectal temperature, 60 mins. after treatment", "setting": "[5]; 5 mg/kg per os", "result": 40.15, "unit": "°C"},
      {"measurement": "Rectal temperature, 120 mins. after treatment", "setting": "[5]; 5 mg/kg per os", "result": 40.55, "unit": "°C"},
      {"measurement": "Rectal temperature, 180 mins. after treatment", "setting": "[5]; 5 mg/kg per os", "result": 40.02, "unit": "°C"},
      {"measurement": "Rectal temperature, 30 mins. after treatment", "setting": "[5]; 10 mg/kg per os", "result": 40.05, "unit": "°C"},
      {"measurement": "Rectal temperature, 60 mins. after treatment", "setting": "[5]; 10 mg/kg per os", "result": 39.90, "unit": "°C"},
      {"measurement": "Rectal temperature, 120 mins. after treatment", "setting": "[5]; 10 mg/kg per os", "result": 39.48, "unit": "°C"},
      {"measurement": "Rectal temperature, 180 mins. after treatment", "setting": "[5]; 10 mg/kg per os", "result": 39.32, "unit": "°C"},
      {"measurement": "Rectal temperature, 30 mins. after treatment", "setting": "[5]; 25 mg/kg per os", "result": 40.65, "unit": "°C"},
      {"measurement": "Rectal temperature, 60 mins. after treatment", "setting": "[5]; 25 mg/kg per os", "result": 39.95, "unit": "°C"},
      {"measurement": "Rectal temperature, 120 mins. after treatment", "setting": "[5]; 25 mg/kg per os", "result": 39.20, "unit": "°C"},
      {"measurement": "Rectal temperature, 180 mins. after treatment", "setting": "[5]; 25 mg/kg per os", "result": 39.05, "unit": "°C"},
      {"measurement": "% Increase of pain threshold", "setting": "[6]; [8]", "result": 27, "unit": "%"},
      {"measurement": "% Increase of pain threshold", "setting": "[6]; [12]", "result": 44, "unit": "%"},
      {"measurement": "% Increase of pain threshold", "setting": "[6]; [9]", "result": 105, "unit": "%"},
      {"measurement": "% Increase of pain threshold", "setting": "[6]; [10]", "result": 120, "unit": "%"},
      {"measurement": "% Increase of pain threshold", "setting": "[6]; 100 mg/kg i.p.", "result": 176, "unit": "%"},
      {"measurement": "% Increase of pain threshold", "setting": "[6]; 100 mg/kg os", "result": 180, "unit": "%"},
      {"measurement": "toxicity", "setting": "[7]", "result": "low toxicity"}
    ]}
  ]
}
